Test results: PMC10648349, “Aromatic Diboronic Acids as Effective KPC/AmpC Inhibitors” (Molecules, 2023)
Values after ≈ are worked out from the molar mass of the structure shown.

Tests used:
E. faecalis ATCC 29212 = assay: direct antimicrobial activity (disc-diffusion, MIC, MBC); format: cell-based; conditions: Enterococcus faecalis, ATCC29212; for zone of inhibition at 0.4 mg/disc: 0.4 mg per disc, 9 mm disc (linezolid 0.03 mg, 6 mm disc), - no zone, read-out: Diameter of inhibition zone
Summary of the method: (§1)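 Testing of direct antimicrobial action relied on CLSI and EUCAST protocols, namely disc diffusion, MIC and cidal-concentration determinations. Each disc carried 0.4 mg of test agent.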

E. faecium ATCC 6057 = assay: as above; format: cell-based; conditions: Enterococcus faecium, ATCC6057; for zone of inhibition at 0.4 mg/disc: 0.4 mg per disc, 9 mm disc (linezolid 0.03 mg, 6 mm disc), - no zone, read-out: Diameter of inhibition zone
Summary of the method: as §1

[1] = system: S. aureus ATCC 43300 MRSA; assay: as above; format: cell-based; conditions: Staphylococcus aureus; for zone of inhibition at 0.4 mg/disc: 0.4 mg per disc, 9 mm disc (linezolid 0.03 mg, 6 mm disc), - no zone, read-out: Diameter of inhibition zone
Summary of the method: as §1

S. aureus ATCC 6538P = assay: as above; format: cell-based; conditions: Staphylococcus aureus, ATCC6538P; for zone of inhibition at 0.4 mg/disc: 0.4 mg per disc, 9 mm disc (linezolid 0.03 mg, 6 mm disc), - no zone, read-out: Diameter of inhibition zone
Summary of the method: as §1

[2] = system: S. epidermidis ATCC 12228; assay: as above; format: cell-based; conditions: Staphylococcus epidermidis, ATCC12228; for zone of inhibition at 0.4 mg/disc: 0.4 mg per disc, 9 mm disc (linezolid 0.03 mg, 6 mm disc), - no zone, read-out: Diameter of inhibition zone
Summary of the method: as §1

B. subtilis ATCC 6633 = assay: direct antimicrobial activity (disc-diffusion); format: cell-based; conditions: Bacillus subtilis, ATCC6633; 0.4 mg per disc, 9 mm disc (linezolid 0.03 mg, 6 mm disc); - no zone; read-out: Diameter of inhibition zone
Summary of the method: as §1

[3] = system: C. parapsilosis ATCC 22019; assay: antifungal activity (disc-diffusion, MIC, MFC); format: cell-based, Candida parapsilosis; conditions: Lodderomyces parapsilosis, ATCC22019; for MIC: fluconazole by Etest; for zone of inhibition at 0.4 mg/disc: 0.4 mg per disc, 9 mm disc (fluconazole 0.025 mg, 6 mm disc), - no zone, read-out: Diameter of inhibition zone
Summary of the method: as §1

[4] = system: C. guilliermondii IBA 155; assay: antifungal activity (disc-diffusion, MIC, MFC); format: cell-based, Candida guilliermondii; conditions: Meyerozyma guilliermondii, IBA155; for zone of inhibition at 0.4 mg/disc: 0.4 mg per disc, 9 mm disc (fluconazole 0.025 mg, 6 mm disc), - no zone, read-out: Diameter of inhibition zone; for MIC: fluconazole by Etest
Summary of the method: as §1

C. albicans ATCC 90028 = assay: antifungal activity (disc-diffusion, MIC, MFC); format: cell-based; conditions: Candida albicans, ATCC90028; for MIC: fluconazole by Etest; for zone of inhibition at 0.4 mg/disc: 0.4 mg per disc, 9 mm disc (fluconazole 0.025 mg, 6 mm disc), - no zone, read-out: Diameter of inhibition zone
Summary of the method: as §1

C. tropicalis ATCC 750 = assay: antifungal activity (disc-diffusion, MIC, MFC); format: cell-based; conditions: Candida tropicalis, ATCC750; for MIC: fluconazole by Etest; for zone of inhibition at 0.4 mg/disc: 0.4 mg per disc, 9 mm disc (fluconazole 0.025 mg, 6 mm disc), - no zone, read-out: Diameter of inhibition zone
Summary of the method: as §1

C. tropicalis IBA 171 = assay: antifungal activity (disc-diffusion, MIC, MFC); format: cell-based; conditions: Candida tropicalis, IBA171; for MIC: fluconazole by Etest
Summary of the method: as §1

S. cerevisiae ATCC 9763 = assay: antifungal activity (disc-diffusion, MIC, MFC); format: cell-based; conditions: Saccharomyces cerevisiae, ATCC9763; for MIC: fluconazole by Etest; for zone of inhibition at 0.4 mg/disc: 0.4 mg per disc, 9 mm disc (fluconazole 0.025 mg, 6 mm disc), - no zone, read-out: Diameter of inhibition zone
Summary of the method: as §1

E. coli 76 KPC-2(+) = assay: MIC of tested agent alone, microdilution; format: cell-based; conditions: Escherichia coli; read-out: MIC of agent alone
Summary of the method: (§2)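 Checkerboard synergy testing crossed two-fold dilutions of the tested agents or PBA (4–16 mg/L) with β-lactam dilutions (1–64 mg/L), and antibiotic MICs were read at each agent level. FICI was derived from the interface wells. Separately, each agent's own MIC came from standard microdilution.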

E. coli 77 CMY-2(+) = assay: MIC of tested agent alone, microdilution; format: cell-based; conditions: Escherichia coli; read-out: MIC of agent alone
Summary of the method: as §2

[5] = system: K. pneumoniae 81 KPC-3(+); assay: MIC of tested agent alone, microdilution; format: cell-based; conditions: Klebsiella pneumoniae; read-out: MIC of agent alone
Summary of the method: as §2

[6] = system: K. pneumoniae 83 KPC-3(+), CTX-M-3(+); assay: MIC of tested agent alone, microdilution; format: cell-based; conditions: Klebsiella pneumoniae; read-out: MIC of agent alone
Summary of the method: as §2

[7] = system: K. pneumoniae ATCC BAA-1705 KPC-2(+); assay: MIC of tested agent alone, microdilution; format: cell-based; conditions: Klebsiella pneumoniae, ATCCBAA1705; read-out: MIC of agent alone
Summary of the method: as §2

[8] = system: P. aeruginosa MUW 700 AmpC(+); assay: MIC of tested agent alone, microdilution; format: cell-based; conditions: Pseudomonas aeruginosa; read-out: MIC of agent alone
Summary of the method: as §2

[9] = system: K. pneumoniae ATCC BAA 1705 KPC-2-positive; assay: combination disc test CDT-KPC; format: cell-based; conditions: Klebsiella pneumoniae, BAA1705, read-out: Diameter of inhibition zone, MEM-10 disc with agent; for zone of inhibition at 300 µg/disc: agent 0.3 mg per disc
[10] = system: P. aeruginosa MUW 700 cAmpC-positive; assay: combination disc test CDT-AmpC; format: cell-based; conditions: Pseudomonas aeruginosa, read-out: Diameter of inhibition zone, CAZ-30 disc with agent; for zone of inhibition at 300 µg/disc: agent 0.3 mg per disc
[11] = system: E. coli 77 CMY-2-positive; assay: combination disc test CDT-AmpC; format: cell-based; conditions: Escherichia coli, read-out: Diameter of inhibition zone, CAZ-30 disc with agent; for zone of inhibition at 300 µg/disc: agent 0.3 mg per disc
[12] = system: P. aeruginosa MUW 700 cAmpC-positive; assay: checkerboard microdilution, antibiotic plus tested agent; format: cell-based, Pseudomonas aeruginosa
Summary of the method: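 β-lactam 1–64 mg/L × agent/PBA 4–16 mg/L checkerboard; meropenem vs carbapenemase producers, ceftazidime vs AmpC producer; imipenem, ertapenem added for selected agents. Readout: combination MICs, FICI (average and lowest); off-scale MICs taken as next doubling.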

## OB(O)c1cccc(B(O)O)c1 [2a]
E. faecalis ATCC 29212
  MIC: 200 µg/mL (≈ 1210 µM)
E. faecium ATCC 6057
  MIC: > 400 µg/mL
[1]
  MIC: 400 µg/mL (≈ 2410 µM)
S. aureus ATCC 6538P
  MIC: 100 µg/mL (≈ 603 µM)
  zone of inhibition at 0.4 mg/disc: 20 mm
[2]
  MIC: 200 µg/mL (≈ 1210 µM)
  zone of inhibition at 0.4 mg/disc: 21 mm
B. subtilis ATCC 6633
  zone of inhibition at 0.4 mg/disc: 18 mm
[3]
  MIC: > 400 µg/mL
[4]
  zone of inhibition at 0.4 mg/disc: 14 mm
  MIC: > 400 µg/mL
C. albicans ATCC 90028
  MIC: 400 µg/mL (≈ 2410 µM)
C. tropicalis ATCC 750
  MIC: > 400 µg/mL
C. tropicalis IBA 171
  MIC: 400 µg/mL (≈ 2410 µM)
S. cerevisiae ATCC 9763
  MIC: > 400 µg/mL
E. coli 76 KPC-2(+)
  MIC: > 400 µg/mL
E. coli 77 CMY-2(+)
  MIC: > 400 µg/mL
[5]
  MIC: > 400 µg/mL
[6]
  MIC: > 400 µg/mL
[7]
  MIC: > 400 µg/mL
[8]
  MIC: > 400 µg/mL
[9]
  zone of inhibition at 300 µg/disc: 15 mm
[10]
  zone of inhibition at 300 µg/disc: 21 mm
[11]
  zone of inhibition at 300 µg/disc: 22 mm
[12]
  Average FICI with ceftazidime: 0.18
  Interpretation of the average FICI with ceftazidime: S (FICI ≤ 0.5, synergy)
  Interpretation of the lowest FICI with ceftazidime: S (FICI ≤ 0.5, synergy)
  The lowest FICI with ceftazidime: 0.14

## OB(O)c1cc(Br)c(B(O)O)cc1Br [1i]
E. faecalis ATCC 29212
  MIC: 200 µg/mL (≈ 618 µM)
  zone of inhibition at 0.4 mg/disc: 14 mm
E. faecium ATCC 6057
  MIC: 200 µg/mL (≈ 618 µM)
  zone of inhibition at 0.4 mg/disc: 11 mm
[1]
  MIC: 100 µg/mL (≈ 309 µM)
  zone of inhibition at 0.4 mg/disc: 11 mm
S. aureus ATCC 6538P
  MIC: 25 µg/mL (≈ 77.3 µM)
  zone of inhibition at 0.4 mg/disc: 14 mm
[2]
  MIC: 50 µg/mL (≈ 155 µM)
  zone of inhibition at 0.4 mg/disc: 21 mm
B. subtilis ATCC 6633
  zone of inhibition at 0.4 mg/disc: 18 mm
[3]
  zone of inhibition at 0.4 mg/disc: 24 mm
  MIC: 50 µg/mL (≈ 155 µM)
[4]
  zone of inhibition at 0.4 mg/disc: 34 mm
  MIC: 25 µg/mL (≈ 77.3 µM)
C. albicans ATCC 90028
  zone of inhibition at 0.4 mg/disc: 31 mm
  MIC: 12.5 µg/mL (≈ 38.6 µM)
C. tropicalis ATCC 750
  zone of inhibition at 0.4 mg/disc: 25 mm
  MIC: 50 µg/mL (≈ 155 µM)
C. tropicalis IBA 171; 0.4 mg per disc, 9 mm disc (fluconazole 0.025 mg, 6 mm disc), - no zone, read-out: Diameter of inhibition zone
  zone of inhibition at 0.4 mg/disc: 29 mm
C. tropicalis IBA 171
  MIC: 25 µg/mL (≈ 77.3 µM)
S. cerevisiae ATCC 9763
  zone of inhibition at 0.4 mg/disc: 24 mm
  MIC: 50 µg/mL (≈ 155 µM)
E. coli 76 KPC-2(+)
  MIC: 100 µg/mL
E. coli 77 CMY-2(+)
  MIC: 100 µg/mL
[5]
  MIC: 200 µg/mL
[6]
  MIC: 200 µg/mL
[7]
  MIC: 200 µg/mL
[8]
  MIC: > 400 µg/mL
[9]; agent 0.1 mg per disc
  zone of inhibition at 100 µg/disc: 6 mm
[10]; agent 0.1 mg per disc
  zone of inhibition at 100 µg/disc: 16 mm
[11]; agent 0.1 mg per disc
  zone of inhibition at 100 µg/disc: 16 mm

## OB(O)c1ccccc1S [7c, 2-mercaptophenylboronic acid]
E. faecalis ATCC 29212
  MIC: 25 µg/mL (≈ 162 µM)
  zone of inhibition at 0.4 mg/disc: 23 mm
E. faecium ATCC 6057
  MIC: 12.5 µg/mL (≈ 81.2 µM)
  zone of inhibition at 0.4 mg/disc: 25 mm
[1]
  MIC: 25 µg/mL (≈ 162 µM)
  zone of inhibition at 0.4 mg/disc: 22 mm
S. aureus ATCC 6538P
  MIC: 12.5 µg/mL (≈ 81.2 µM)
  zone of inhibition at 0.4 mg/disc: 23 mm
[2]
  MIC: 12.5 µg/mL (≈ 81.2 µM)
  zone of inhibition at 0.4 mg/disc: 30 mm
B. subtilis ATCC 6633
  zone of inhibition at 0.4 mg/disc: 26 mm
[3]
  zone of inhibition at 0.4 mg/disc: 29 mm
  MIC: 50 µg/mL (≈ 325 µM)
[4]
  MFC: 200 µg/mL (≈ 1300 µM)
  zone of inhibition at 0.4 mg/disc: 40 mm
  MIC: 25 µg/mL (≈ 162 µM)
C. albicans ATCC 90028
  MFC: 200 µg/mL (≈ 1300 µM)
  zone of inhibition at 0.4 mg/disc: 33 mm
  MIC: 50 µg/mL (≈ 325 µM)
C. tropicalis ATCC 750
  MFC: 200 µg/mL (≈ 1300 µM)
  zone of inhibition at 0.4 mg/disc: 20 mm
  MIC: 50 µg/mL (≈ 325 µM)
C. tropicalis IBA 171
  MFC: 100 µg/mL (≈ 649 µM)
  MIC: 12.5 µg/mL (≈ 81.2 µM)
S. cerevisiae ATCC 9763
  MFC: 25 µg/mL (≈ 162 µM)
  zone of inhibition at 0.4 mg/disc: 34 mm
  MIC: 12.5 µg/mL (≈ 81.2 µM)
E. coli 76 KPC-2(+)
  MIC: > 200 µg/mL
E. coli 77 CMY-2(+)
  MIC: > 200 µg/mL
[5]
  MIC: > 200 µg/mL
[6]
  MIC: > 200 µg/mL
[7]
  MIC: > 200 µg/mL
[8]
  MIC: > 200 µg/mL
[9]
  zone of inhibition at 300 µg/disc: 13 mm
[10]
  zone of inhibition at 300 µg/disc: 11 mm
[11]
  zone of inhibition at 300 µg/disc: 16 mm
